# Earlier results as cited in patent US20150018389A1, “METHOD FOR TREATING PARKINSONS DISEASE AND OTHER NEUROLOGICAL DISEASES” (priority 2013, published 2015).
# Experiments:
# CD4 lymphocyte counts = settings: erythema nodosum leprosum (Moncada et al. 1985)
# [1] = tested on: tumor necrosis factor alpha production by stimulated monocytes; settings: stimulated monocytes (Sampaio et al. 1991)
# HIV [2] = settings: infected cell lines induced with tumor necrosis factor alpha (Schauf et al. 1992)
# [3] = not given; remark: listed apart in the source
# [4] = tested on: tumor necrosis factor alpha; settings: erythema nodosum leprosum, treatment with thalidomide (Sampaio et al. 1992)
# HIV [5] = settings: peripheral blood mononuclear cells of HIV-infected patients
# [6] = serum vs in vitro pH 7.4
# [7] = not given; remark: listed apart in the source
structure (smiles),measurement,setting,value
"O=C1CCC(N2C(=O)c3ccccc3C2=O)C(=O)N1 (racemic) [Thalidomide, N-phthalidoglutarimide]",previously suppressed CD4 lymphocyte counts,CD4 lymphocyte counts,increases
same,tumor necrosis factor alpha production,[1],inhibit
same,absorption,"humans, orally administered",poorly absorbed
same,plasma protein binding,in vivo,highly bound to plasma proteins
same,HIV expression,HIV [2],inhibited
same,side effects in humans,[3],"somnolence, teratogenicity and, upon extended administration, peripheral neuropathy"
same,elevated tumor necrosis factor alpha levels,[4],reduced
same,HIV production,HIV [5],reduce
same,hydrolytic cleavage in serum compared with in vitro at pH 7.4,[6],much slower
same,toxicity in a series of animal studies,[7],has not been toxic
